Source: US20260055102A1 (Redx Pharma Limited, priority 2022, published 2026)

Legend:
[1] = molecular target: Recombinant human DDR1 (aa440-876 containing a GST tag) (Homo sapiens (Human), UniProt Q08345); assay: LanthaScreen Eu Kinase Binding Assay DDR1; settings: Kinase Tracer 178 5 nM, at least two independent replicates; for IC50: read-out: DDR1 pIC50 (converted)
Protocol: (§1) DDR1 and DDR2 Biochemical Assay Method The capacity of compounds to bind to DDR1 and DDR2 was quantified using a LanthaScreen Eu Kinase Binding Assay. Recombinant human DDR1 (2.5 nM; aa440-876 containing a GST tag) and DDR2 (1.75 nM; aa427-855 containing a GST tag) were diluted in assay buffer (50 mM HEPES pH7.3, 10 mM MgCl2, 1 mM EGTA and 0.01% Tween) with various concentrations of compound in a 384-well plate and a volume of 5 uL. After a 30-minute incubation at room temperature, 2.5 uL of Eu-anti GST antibody (diluted to 1 nM in assay buffer) plus Kinase Tracer 178 (diluted in assay buffer to 5 nM for DDR1 and 10 nM for DDR2) were added to the plate. Following 60-minute incubation at room temperature, time-resolved fluorescence was measured on a BMG Labtech PHERAstar plate reader. DMSO (1%) and reference compound (1 μM) were used to generate the Max and Min assay signals, respectively. Data was analysed using a four-parameter logistic model to calculate IC50 values, with at least two independent replicates were performed for each compound.

[2] = molecular target: Recombinant human DDR2 (aa427-855 containing a GST tag) (Homo sapiens (Human), UniProt Q16832); assay: LanthaScreen Eu Kinase Binding Assay DDR2; settings: Kinase Tracer 178 10 nM, at least two independent replicates; for IC50: read-out: DDR2 pIC50 (converted)
Protocol: as §1

Sequence of Recombinant human DDR1 (aa440-876 containing a GST tag) (Q08345 other isoform, or with tags, fused parts or gaps): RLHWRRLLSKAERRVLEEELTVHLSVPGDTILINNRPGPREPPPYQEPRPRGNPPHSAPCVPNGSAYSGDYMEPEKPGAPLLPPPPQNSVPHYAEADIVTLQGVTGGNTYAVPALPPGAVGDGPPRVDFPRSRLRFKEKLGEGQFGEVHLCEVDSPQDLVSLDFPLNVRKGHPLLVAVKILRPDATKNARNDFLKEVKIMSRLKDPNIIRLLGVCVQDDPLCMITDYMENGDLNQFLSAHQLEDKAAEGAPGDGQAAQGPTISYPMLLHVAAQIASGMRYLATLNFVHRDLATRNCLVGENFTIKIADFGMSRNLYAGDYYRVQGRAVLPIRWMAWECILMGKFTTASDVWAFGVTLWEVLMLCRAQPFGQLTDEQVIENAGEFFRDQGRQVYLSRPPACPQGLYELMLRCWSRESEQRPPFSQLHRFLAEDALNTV
Sequence of Recombinant human DDR2 (aa427-855 containing a GST tag) (Q16832 427-855): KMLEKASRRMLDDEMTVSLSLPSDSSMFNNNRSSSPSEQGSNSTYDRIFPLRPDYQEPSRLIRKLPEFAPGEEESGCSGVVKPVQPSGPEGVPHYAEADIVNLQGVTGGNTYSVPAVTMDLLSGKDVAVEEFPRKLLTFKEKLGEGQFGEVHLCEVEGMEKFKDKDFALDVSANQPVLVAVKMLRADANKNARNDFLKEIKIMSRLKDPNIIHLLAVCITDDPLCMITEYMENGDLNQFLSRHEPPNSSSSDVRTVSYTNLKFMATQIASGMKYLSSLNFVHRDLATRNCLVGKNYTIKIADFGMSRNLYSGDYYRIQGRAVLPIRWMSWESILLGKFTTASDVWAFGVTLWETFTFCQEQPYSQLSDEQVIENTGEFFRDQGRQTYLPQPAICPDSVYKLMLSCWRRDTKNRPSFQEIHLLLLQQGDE

| Compound | DDR1 pIC50 [1] | DDR2 pIC50 [2] | IC50 [2] | IC50 [1] |
| --- | --- | --- | --- | --- |
| Cc1cccc2c1n(-c1ccc(-c3cncc4c3cnn4C)cn1)c(=O)n2CC(=O)N[C@@H](C)C(F)(F)F [Example 64, 2-[4-methyl-3-[5-(1-methylpyrazolo[3,4-c]pyridin-4-yl)-2-pyridyl]-2-oxo-benzimidazol-1-yl]-N-[(1S)-2,2,2-trifluoro-1-methyl-ethyl]acetamide] | B (8≥pIC50>7) | D (pIC50≤6) | – | – |
| CC(NC(=O)Cn1c(=O)n(-c2ccc(-c3cncc4c3cnn4C)cc2)c2ccccc21)C(F)(F)F (stereo not drawn) [Example 17, 2-[3-[4-(1-methylpyrazolo[3,4-c]pyridin-4-yl)phenyl]-2-oxobenzimidazol-1-yl]-N-(2,2,2-trifluoro-1-methylethyl)acetamide] | – | – | 0.1 to 1 µM | 0.01 to 0.1 µM |
| Cc1cccc2c1n(-c1ccc(-c3cncc4c3cnn4C)cc1)c(=O)n2CC(=O)N1CCOCC1C(F)(F)F (stereo not drawn) [Example 39, 4-methyl-3-[4-(1-methylpyrazolo[3,4-c]pyridin-4-yl)phenyl]-1-[2-oxo-2-[3-(trifluoromethyl)morpholin-4-yl]ethyl]benzimidazol-2-one] | A (pIC50>8) | – | 0.01 to 0.1 µM | – |
| CN1CCN(C(=O)Cn2c(=O)n(-c3ccc(-c4cncc5c4cnn5C)cc3)c3ccccc32)CC1 [Example 21, 1-[2-(4-methylpiperazin-1-yl)-2-oxoethyl]-3-[4-(1-methylpyrazolo[3,4-c]pyridin-4-yl)phenyl]benzimidazol-2-one] | D (pIC50≤6) | D (pIC50≤6) | – | – |
| CC(CNC(=O)Cn1c(=O)n(-c2ccc(-c3cncc4c3cnn4C)cc2)c2ccccc21)C(F)(F)F (stereo not drawn) [Example 33, 2-[3-[4-(1-methylpyrazolo[3,4-c]pyridin-4-yl)phenyl]-2-oxobenzimidazol-1-yl]-N-(3,3,3-trifluoro-2-methyl-propyl)acetamide] | – | D (pIC50≤6) | – | 0.01 to 0.1 µM |
| CC(NC(=O)Cn1c(=O)n(-c2ccc(-c3cncc4c3cnn4C)cc2)c2ccccc21)C1CC1 (stereo not drawn) [Example 19, N-(1-cyclopropylethyl)-2-[3-[4-(1-methylpyrazolo[3,4-c]pyridin-4-yl)phenyl]-2-oxobenzimidazol-1-yl]acetamide] | – | D (pIC50≤6) | – | 0.01 to 0.1 µM |
| Cc1cccc2c1n(-c1ccc(-c3cncc4c3cnn4C)cc1)c(=O)n2CC(=O)N[C@@H](C)C(F)(F)F [Example 7, 2-[4-methyl-3-[4-(1-methylpyrazolo[3,4-c]pyridin-4-yl)phenyl]-2-oxobenzimidazol-1-yl]-N-[(1S)-2,2,2-trifluoro-1-methylethyl]acetamide] | A (pIC50>8) | A (pIC50>8) | – | – |
| Cn1ncc2c(-c3ccc(-n4c(=O)n(CC(=O)N5CCCC[C@@H]5C(F)(F)F)c5ccccc54)cc3)cncc21 [Example 30, 1-[4-(1-methylpyrazolo[3,4-c]pyridin-4-yl)phenyl]-3-[2-oxo-2-[(2R)-2-(trifluoromethyl)-1-piperidyl]ethyl]benzimidazol-2-one] | – | D (pIC50≤6) | – | 0.1 to 1 µM |
| Cc1cccc2c1n(-c1ccc(-c3cncc4c3cnn4C)nc1)c(=O)n2CC(=O)N[C@H](C)C(F)(F)F [Example 51, 2-[4-methyl-3-[6-(1-methylpyrazolo[3,4-c]pyridin-4-yl)-3-pyridyl]-2-oxo-benzimidazol-1-yl]-N-[(1R)-2,2,2-trifluoro-1-methyl-ethyl]acetamide] | – | – | 0.1 to 1 µM | 0.01 to 0.1 µM |
| Cc1cccc2c1n(-c1ccc(-c3cncc4c3cnn4C)cn1)c(=O)n2CC(=O)N1CCO[C@@H](C(F)(F)F)C1 [Example 60, 4-methyl-3-[5-(1-methylpyrazolo[3,4-c]pyridin-4-yl)-2-pyridyl]-1-[2-oxo-2-[(2R)-2-(trifluoromethyl)morpholin-4-yl]ethyl]benzimidazol-2-one] | – | – | 0.1 to 1 µM | 0.01 to 0.1 µM |
| Cc1cccc2c1n(-c1ccc(-c3cncc4c3cnn4C)nn1)c(=O)n2CC(=O)NCC(F)(F)F [Example 67, 2-[4-methyl-3-[6-(1-methylpyrazolo[3,4-c]pyridin-4-yl)pyridazin-3-yl]-2-oxo-benzimidazol-1-yl]-N-(2,2,2-trifluoroethyl)acetamide] | – | – | 0.1 to 1 µM | 0.01 to 0.1 µM |
| Cn1ncc2c(-c3ccc(-n4c(=O)n(CC(=O)N5CCC[C@H]5C(F)(F)F)c5ccccc54)cc3)cncc21 [Example 2, 1-[4-(1-methylpyrazolo[3,4-c]pyridin-4-yl)phenyl]-3-[2-oxo-2-[(2S)-2-(trifluoromethyl)pyrrolidin-1-yl]ethyl]benzimidazol-2-one] | A (pIC50>8) | – | 0.1 to 1 µM | – |

Other lines, results leading:

| DDR1 pIC50 [1] | DDR2 pIC50 [2] | IC50 [2] | IC50 [1] | Compound |
| --- | --- | --- | --- | --- |
| A (pIC50>8) | – | 0.01 to 0.1 µM | – | Cc1cc(-c2cncc3c2cnn3C)ccc1-n1c(=O)n(CC(=O)N[C@@H](C)C(F)(F)F)c2cccc(Cl)c21 [Example 84, 2-[4-chloro-3-[2-methyl-4-(1-methylpyrazolo[3,4-c]pyridin-4-yl)phenyl]-2-oxo-benzimidazol-1-yl]-N-[(1S)-2,2,2-trifluoro-1-methyl-ethyl]acetamide] |
| – | D (pIC50≤6) | – | 0.01 to 0.1 µM | Cc1nc(-c2cncc3[nH]nc(C)c23)ccc1-n1c(=O)n(CC(=O)NCC(F)(F)F)c2cccc(C)c21 [Example 103, 2-[4-methyl-3-[2-methyl-6-(3-methyl-1H-pyrazolo[3,4-c]pyridin-4-yl)-3-pyridyl]-2-oxo-benzimidazol-1-yl]-N-(2,2,2-trifluoroethyl)acetamide] |
| D (pIC50≤6) | D (pIC50≤6) | – | – | Cn1ncc2c(-c3ccc(-n4c(=O)n(CC(=O)NCC(F)(F)F)c5cccnc54)cc3)cncc21 [Example 76, 2-[3-[4-(1-methylpyrazolo[3,4-c]pyridin-4-yl)phenyl]-2-oxo-imidazo[4,5-b]pyridin-1-yl]-N-(2,2,2-trifluoroethyl)acetamide] |
| A (pIC50>8) | – | 0.1 to 1 µM | – | Cc1cccc2c1n(-c1ccc(-c3cncc4[nH]ncc34)cn1)c(=O)n2CC(=O)N1CCO[C@H](C(F)(F)F)C1 [Example 70, 4-methyl-1-[2-oxo-2-[(2S)-2-(trifluoromethyl)morpholin-4-yl]ethyl]-3-[5-(1H-pyrazolo[3,4-c]pyridin-4-yl)-2-pyridyl]benzimidazol-2-one] |
| A (pIC50>8) | – | 0.01 to 0.1 µM | – | Cc1cccc2c1n(-c1ccc(-c3cncc4[nH]ncc34)cn1)c(=O)n2CC(=O)N[C@@H](C)C(F)(F)F [Example 69, 2-[4-methyl-2-oxo-3-[5-(1H-pyrazolo[3,4-c]pyridin-4-yl)-2-pyridyl]benzimidazol-1-yl]-N-[(1S)-2,2,2-trifluoro-1-methyl-ethyl]acetamide] |
| D (pIC50≤6) | D (pIC50≤6) | – | – | COc1cccc2c1n(-c1ccc(-c3cncc4c3cnn4C)cc1)c(=O)n2CC(=O)N[C@@H](C)C(F)(F)F [Example 85, 2-[4-methoxy-3-[4-(1-methylpyrazolo[3,4-c]pyridin-4-yl)phenyl]-2-oxo-benzimidazol-1-yl]-N-[(1S)-2,2,2-trifluoro-1-methyl-ethyl]acetamide] |
| – | D (pIC50≤6) | – | 0.01 to 0.1 µM | Cn1ncc2c(-c3ccc(-n4c(=O)n(CC(=O)NCC(F)(F)F)c5cccc(C#N)c54)cc3)cncc21 [Example 74, 2-[4-cyano-3-[4-(1-methylpyrazolo[3,4-c]pyridin-4-yl)phenyl]-2-oxo-benzimidazol-1-yl]-N-(2,2,2-trifluoroethyl)acetamide] |
| A (pIC50>8) | – | 0.1 to 1 µM | – | Cc1cccc2c1n(-c1ccc(-c3cncc4[nH]ncc34)cn1)c(=O)n2CC(=O)NCC(F)(F)F [Example 72, 2-[4-methyl-2-oxo-3-[5-(1H-pyrazolo[3,4-c]pyridin-4-yl)-2-pyridyl]benzimidazol-1-yl]-N-(2,2,2-trifluoroethyl)acetamide] |
| – | D (pIC50≤6) | – | 0.1 to 1 µM | Cc1cc(-c2cncc3c2c(C)nn3C)ncc1-n1c(=O)n(CC(=O)NCC(F)(F)F)c2cccc(C)c21 [Example 108] |
| A (pIC50>8) | D (pIC50≤6) | – | – | Cn1ncc2c(-c3ccc(-n4c(=O)n(CC(=O)NCC(F)(F)F)c5ccccc54)c(Cl)c3)cncc21 [Example 87, 2-[3-[2-chloro-4-(1-methylpyrazolo[3,4-c]pyridin-4-yl)phenyl]-2-oxo-benzimidazol-1-yl]-N-(2,2,2-trifluoroethyl)acetamide] |
| A (pIC50>8) | – | 0.01 to 0.1 µM | – | Cc1cc(-c2cncc3c2cnn3C)ccc1-n1c(=O)n(CC(=O)N[C@@H](C)C(F)(F)F)c2cccc(C)c21 [Example 82, 2-[4-methyl-3-[2-methyl-4-(1-methylpyrazolo[3,4-c]pyridin-4-yl)phenyl]-2-oxo-benzimidazol-1-yl]-N-[(1S)-2,2,2-trifluoro-1-methyl-ethyl]acetamide] |
| A (pIC50>8) | – | 0.01 to 0.1 µM | – | Cc1nc(-c2cncc3[nH]ncc23)ccc1-n1c(=O)n(CC(=O)NCC(F)(F)F)c2cccc(C)c21 [Example 94, 2-[4-methyl-3-[2-methyl-6-(1H-pyrazolo[3,4-c]pyridin-4-yl)-3-pyridyl]-2-oxo-benzimidazol-1-yl]-N-(2,2,2-trifluoroethyl)acetamide] |
